Assay results: patent publication US8642284B1, “Methods for identifying agents that alter NAD-dependent deacetylation activity of a SIR2 protein” (Massachusetts Institute of Technology, priority 1999, dated 2014)
Entries after “also recorded” stand apart in the source; their conditions may differ.

Tests used:
Sir2p [1] = molecular target: T1, Sir2p (Saccharomyces cerevisiae, UniProt P06700); assay: NAD-dependent deacetylation of di-acetylated H3 peptide by recombinant yeast Sir2p (HPLC); assay type: biochemical; conditions: 200 μM
T1 construct: purified recombinant yeast (rSir2p) protein, mouse Sir2 (mSir2α) proteins and vector controls; 6×His; made in house; host or cells: E. coli BL21 (DE3), pET28a
T1 sequence (P06700 whole entry): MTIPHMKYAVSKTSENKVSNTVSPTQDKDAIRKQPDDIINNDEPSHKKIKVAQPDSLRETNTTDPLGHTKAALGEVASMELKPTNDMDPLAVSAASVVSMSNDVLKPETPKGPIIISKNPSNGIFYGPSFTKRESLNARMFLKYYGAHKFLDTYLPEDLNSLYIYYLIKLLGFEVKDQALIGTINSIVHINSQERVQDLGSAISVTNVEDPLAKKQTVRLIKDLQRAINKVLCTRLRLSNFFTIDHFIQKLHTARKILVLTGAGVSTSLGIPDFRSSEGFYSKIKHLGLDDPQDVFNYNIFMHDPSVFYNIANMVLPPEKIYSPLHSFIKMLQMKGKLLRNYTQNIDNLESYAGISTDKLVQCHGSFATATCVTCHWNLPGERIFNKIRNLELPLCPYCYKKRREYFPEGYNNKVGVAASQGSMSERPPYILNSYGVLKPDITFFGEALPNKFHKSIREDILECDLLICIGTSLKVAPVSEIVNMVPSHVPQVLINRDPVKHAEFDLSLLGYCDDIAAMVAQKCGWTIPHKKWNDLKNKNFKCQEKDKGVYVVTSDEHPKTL
Description: (§1) The typical reaction of Sir2 deacetylase activity was performed in 50 μl of buffer containing 50 mM Tris-HCl [pH 9.0], 4 mM MgCl2, 0.2 mM DTT, variable concentration of cold nicotinamide adenine dinucleotide (NAD) or NAD derivatives (SIGMA®, MO), 5-10 μg of the purified recombinant Sir2 proteins, and 10 μg of the histone H3 N-terminal tail peptide (amino acid 1-20) di-acetylated at positions 9 and 14 (Upstate Biotechnology™, NY). […] To detect the ADP-ribosylation activity, 8 μCi of NAD 5′-[α-^32P]triphosphate (˜1000 Ci/mmol, Amersham Pharmacia Biotech™, NJ) was added to the same reaction containing 1 μM cold NAD. Histone H3 protein (4 μg) (Roche Molecular Biochemicals™, IN) were used for this assay. All reaction mixtures were incubated at room temperature for 1 hr. Trichostatin A and coumermycin A1 (SIGMA™) were prepared in dimethylsulfoxide (DMSO, SIGMA®), and 5 μl of solvent or inhibitor was added to the reactions prior to adding Sir2 proteins.
After the incubation, the products were precipitated at −20° C. overnight by adding 50 μl of distilled water and 25 μl of 100% trichloroacetic acid (TCA) solution. For high pressure liquid chromatography (HPLC), the precipitates were reconstituted in 5% CH3CN and 0.1% trifluoroacetic acid (TFA) and run in the gradient concentration between 0.05% TFA and 0.043% TFA plus 80% CH3CN on Hewlett Packard Model 1100 HPLC system with 214TP52 column (VYDAC, CA). The chromatograms at the absorbance of 210 nm were digitally recorded and analyzed by Hewlett Packard ChemStation™ system (version A.06.03 [509]). Fractions of samples were collected every 1 min by Gilson™ Fraction Collector Model 203. Peptide sequencing was done by the Applied Biosystems PROCISE® 494 HT protein sequencing system. PTH amino acid chromatograms were recorded and analyzed by the ABI Model 610A2.1 data integration/analysis system.
The experiments employed purified recombinant Sir2p in a reaction with NAD and a peptide of the histone H3 amino-terminal tail (residues 1-20) di-acetylated at lysines 9 and 14. These lysines are hypoacetylated in silenced chromatin and mutations at these positions to glycine greatly reduce silencing in vivo (Thompson, J. S., et al., Nature 369: 245-247 (1994)). The products of a reaction containing 5 μg of recombinant yeast Sir2p (79 pmoles) (FIG. 8a), 10 μg of the H3 peptide (4.2 nmoles) increasing concentrations of NAD were analyzed s by high pressure liquid chromatography (HPLC).

mSir2α = molecular target: T2, mSir2α (Mus musculus, UniProt Q923E4); assay: ADP-ribosylation assay, sensitivity of mSir2α to poly- and mono-ADP-ribosylation inhibitors (histone H2B, 32P-NAD); assay type: biochemical; conditions: 40 μM
T2 construct: ADP-ribosylase activity of bacterial recombinant full-length proteins of ySir2p and mSir2α was determined in in vitro assays; 6×His; made in house; host or cells: E. coli BL21 (DE3) pLysS with an extra copy of arginine tRNA gene, pET28a
T2 sequence (Q923E4 1-737): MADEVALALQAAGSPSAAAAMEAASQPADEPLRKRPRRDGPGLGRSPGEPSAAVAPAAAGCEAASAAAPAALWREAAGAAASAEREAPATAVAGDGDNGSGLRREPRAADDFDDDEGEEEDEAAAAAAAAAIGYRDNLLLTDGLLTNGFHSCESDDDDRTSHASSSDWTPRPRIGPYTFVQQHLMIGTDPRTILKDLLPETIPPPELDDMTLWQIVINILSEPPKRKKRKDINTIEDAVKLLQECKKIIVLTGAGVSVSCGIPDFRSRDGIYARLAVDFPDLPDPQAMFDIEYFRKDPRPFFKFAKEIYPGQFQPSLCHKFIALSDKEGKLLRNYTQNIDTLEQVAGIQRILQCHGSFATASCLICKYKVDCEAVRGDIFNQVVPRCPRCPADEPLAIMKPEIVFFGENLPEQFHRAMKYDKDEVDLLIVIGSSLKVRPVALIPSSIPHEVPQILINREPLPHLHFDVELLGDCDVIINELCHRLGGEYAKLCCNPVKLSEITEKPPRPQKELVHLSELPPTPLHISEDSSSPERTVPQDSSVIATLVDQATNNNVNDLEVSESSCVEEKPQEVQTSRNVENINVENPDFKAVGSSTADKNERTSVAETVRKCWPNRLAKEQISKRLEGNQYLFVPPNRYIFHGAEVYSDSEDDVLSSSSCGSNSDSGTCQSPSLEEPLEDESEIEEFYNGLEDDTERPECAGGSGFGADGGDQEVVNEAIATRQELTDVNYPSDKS
Description: (§2) The typical reaction was performed in 50 or 100 μl of the buffer containing 5 mM Tris-HCl [pH8.0 or 9.0], 4 mM MgCl2, 0.2 mM DTT, 1 μM cold β-NAD^+ (SIGMA®) and 8 μCi nicotinamide adenine dinucleotide 5′[α-^32P]triphosphate (NAD) as a donor of ADP-ribose (˜1000 Ci/mmol, Amersham Pharmacia Biotech). To check the sensitivity to poly- or mono-ADP-ribosylation inhibitors, 3-aminobenzamide (ICN Pharmaceuticals, CA), benzamide, novobiocin and coumermycin A1 (SIGMA®) were added to the reactions prior to adding Sir2 proteins, respectively. The wild type or mutant recombinant proteins (0.5-1 μg for ySir2p and 10 μg of mSir2α) were added with 4 μg of each histone purchased from Roche Molecular Biochemicals (Indianapolis, Ind.). For the peptide experiments, 5-10 μg of unacetylated or acetylated N-terminal tail peptides (amino acids 1-20) of H3 and H4 purchased from Upstate Biotechnology™ (Lake Placid, N.Y.) were used as substrates of the yeast and mouse Sir2 recombinant proteins.
To analyze histone modification, 25 μl of 100% trichloroacetic acid (TCA) solution was mixed to the reaction mixture and left on ice for 15 min. The protein precipitates were centrifuged at 4° C. and washed with 5 or 20% TCA solution twice. The pellets were dissolved in 15 μl of Leammli's sample buffer and boiled for 1.5 min. The proteins were electrophoresed in a 10-20% gradient SDS-PAGE gel. The gel was stained with COOMASSIE® Brilliant Blue R-250 (GibcoBRL Life Technologies™, Frederick, Md.) to check equal loading of histones, dried, and exposed to KODAK® X-OMAT film.
The sensitivity of the ADP-ribosylase activity of mSir2α to poly ADP-ribosylation inhibitors (3-aminobenzamide and benzamide) and mono-ADP-ribosylation inhibitors (novobiocin and coumermycin A1) was evaluated. (FIG. 4F).

[2] = tested on: mono-ADP-ribosyltransferases; conditions: literature value; read-out: reported IC50 concentration; cited from earlier work
Sir2p [3] = molecular target: T1, Sir2p; assay: ADP-ribosylation and NAD hydrolysis by recombinant yeast Sir2p (intact histone H3, H3 peptide; SDS-PAGE, TLC); assay type: biochemical; conditions: 200 μM; for inhibition of NAD hydrolysis by Sir2p: H3 peptide, TLC; for inhibition of ADP-ribosylation by Sir2p: intact histone H3 and H3 peptide
Description: as §2, §1
Electron-spray mass spectroscopy (also referred to herein as mass spectroscopy) was done on the PE Sciex Model API365™ system. Matrix assisted laser desorption/ionization (MALDI) mass spectroscopy can also be used. The electron-spray mass spectroscopy data were analyzed by the BioMultiView Program™ (version 1.3.1). To detect the ADP-ribosylated intact H3 protein, the pellets were dissolved in 15 μl of Leammli sample buffer, boiled for 1.5 min and electrophoresed in a 10-20% gradient SDS-PAGE gel. The gel was stained with Coomassie Brilliant Blue to check equal loading of histones, dried, and exposed to KODAK® X-OMAT film. […]
The effects of a known inhibitor of mono-ADP-ribosyltransferases, coumermycin A1 (Banasik, M., et al., Mol. Cell. Biochem. 138: 185-187 (1994)) was evaluated. […]

## CO[C@H]1[C@H](OC(=O)c2ccc(C)[nH]2)[C@H](O)[C@@H](Oc2ccc3c(O)c(NC(=O)c4c[nH]c(C(=O)Nc5c(O)c6ccc(O[C@H]7OC(C)(C)[C@@H](OC)[C@H](OC(=O)c8ccc(C)[nH]8)[C@@H]7O)c(C)c6oc5=O)c4C)c(=O)oc3c2C)OC1(C)C [coumermycin A1]
Sir2p [1]
  inhibition of deacetylation of the H3 tail by Sir2p: did not inhibit; also recorded: not capable of inhibiting
mSir2α
  inhibition of ADP-ribosylation by mSir2α: strongly inhibited
[2]
  IC50: 27 µM
Sir2p [3]
  inhibition of NAD hydrolysis by Sir2p: inhibited
  inhibition of ADP-ribosylation by Sir2p: inhibited
Sir2p [3]; listed as Coumermycin A1
  inhibition of NAD hydrolysis by Sir2p: inhibit
  inhibition of ADP-ribosylation by Sir2p: inhibit
